ChEMBL document CHEMBL1149391, “SAR and mode of action of novel non-nucleoside inhibitors of hepatitis C NS5b RNA polymerase” (J Med Chem, 2006)
Calls of active or inactive are those of the source. No cut-off for these calls is given here.

Legend:
[1] = target: RNA-directed RNA polymerase (Hepacivirus hominis, UniProt O39930); assay: Inhibitory activity against HCV delta 21 NS5b RNA polymerase
HFF = assay: Cytotoxicity in HFF cells; assay type: functional, cell-based; details: Homo sapiens
ECV-304 = assay: Cytotoxicity in E304 cells; assay type: functional, cell-based; details: Homo sapiens
[2] = target: Aldo-keto reductase family 1 member B1 (Homo sapiens) (UniProt P15121); assay: Inhibition of aldose reductase
Homo sapiens = species: Homo sapiens; assay: Inhibition of human Caspase (caspase 1, caspase 3, caspase 6, caspase 7, caspase 8)
[3] = Inhibition of Calpain
[4] = Cmax in rat at 4.1 mg/kg, po; assay type: ADME, organism-based; parameters: dose 4.1 mg/kg, route oral; details: Sprague-Dawley, in vivo
[5] = Plasma clearance in rat at 0.16 mg/kg, iv; assay type: ADME, organism-based; parameters: dose 0.16 mg/kg, route intravenous; details: Sprague-Dawley
[6] = Tmax in rat at 4.1 mg/kg, po; assay type: ADME, organism-based; parameters: dose 4.1 mg/kg, route oral; details: Sprague-Dawley, in vivo
[7] = target: Cathepsin B (Homo sapiens) (UniProt P07858); assay: Inhibition of Cathepsin B
[8] = AUC(0-8h) in rat at 4.1 mg/kg, po; assay type: ADME, organism-based; parameters: time < 8 hr, dose 4.1 mg/kg, route oral; details: Sprague-Dawley, plasma
Tubulin (Homo sapiens) = Tubulin (Homo sapiens) (UniProt P68371+Q9H4B7+P0DPH7+P68366+Q13509+Q71U36+P04350+Q3ZCM7+P07437+P68363+Q9BQE3+Q6PEY2+Q13885+Q9BVA1+Q9BUF5); assay: Effect on tubulin polymerization; assay type: functional
[9] = Half life in rat at 0.16 mg/kg, iv; assay type: ADME, organism-based; parameters: dose 0.16 mg/kg, route intravenous; details: Sprague-Dawley, in vivo
[10] = Volume of distribution in rat at 0.16 mg/kg, iv; assay type: ADME, organism-based; parameters: dose 0.16 mg/kg, route intravenous; details: Sprague-Dawley, in vivo, read-out: Vdss
Genome polyprotein = Genome polyprotein (Bovine viral diarrhea virus (strain CP7) (BVDV) (Mucosal diseasevirus), UniProt Q96662); assay: Inhibitory activity against BVDV NS5b RNA polymerase; parameters: species or system Bovine viral diarrhea virus 1
[11] = target: T1, Avian myoblastosis virus polyprotein II (Avian myeloblastosis virus, UniProt Q86831); assay: Inhibitory activity against AMV Reverse transcriptase
T1 sequence (Q86831 whole entry): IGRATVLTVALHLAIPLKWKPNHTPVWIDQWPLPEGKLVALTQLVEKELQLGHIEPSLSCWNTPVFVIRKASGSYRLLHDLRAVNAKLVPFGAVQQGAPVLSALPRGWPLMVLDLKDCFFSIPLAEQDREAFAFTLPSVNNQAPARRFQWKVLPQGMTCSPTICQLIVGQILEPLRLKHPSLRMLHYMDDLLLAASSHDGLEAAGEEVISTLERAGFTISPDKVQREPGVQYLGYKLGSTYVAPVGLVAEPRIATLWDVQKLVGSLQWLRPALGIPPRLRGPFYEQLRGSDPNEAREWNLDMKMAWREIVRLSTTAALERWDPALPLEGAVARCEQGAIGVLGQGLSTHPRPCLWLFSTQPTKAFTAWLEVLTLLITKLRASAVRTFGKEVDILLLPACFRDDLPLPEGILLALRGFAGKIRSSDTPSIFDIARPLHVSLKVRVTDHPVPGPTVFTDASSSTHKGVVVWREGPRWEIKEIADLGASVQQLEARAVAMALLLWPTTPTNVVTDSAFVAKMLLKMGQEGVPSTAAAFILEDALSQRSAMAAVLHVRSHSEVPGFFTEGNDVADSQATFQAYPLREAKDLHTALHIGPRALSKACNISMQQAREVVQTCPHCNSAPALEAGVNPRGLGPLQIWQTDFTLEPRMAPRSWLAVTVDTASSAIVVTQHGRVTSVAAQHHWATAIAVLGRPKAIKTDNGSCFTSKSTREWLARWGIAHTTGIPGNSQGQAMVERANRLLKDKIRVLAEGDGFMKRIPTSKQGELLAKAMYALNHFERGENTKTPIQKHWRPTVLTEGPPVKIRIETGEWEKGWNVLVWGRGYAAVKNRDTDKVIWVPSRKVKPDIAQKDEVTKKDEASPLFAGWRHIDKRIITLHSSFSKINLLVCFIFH

[12] = Volume of distribution in rat at 0.86 mg/kg, iv; assay type: ADME, organism-based; parameters: dose 0.86 mg/kg, route intravenous; details: Sprague-Dawley, in vivo, read-out: Vdss
[13] = AUC(0-8h) in rat at 4.3 mg/kg, po; assay type: ADME, organism-based; parameters: time < 8 hr, dose 4.3 mg/kg, route oral; details: Sprague-Dawley, plasma
[14] = Cmax in rat at 4.3 mg/kg, po; assay type: ADME, organism-based; parameters: dose 4.3 mg/kg, route oral; details: Sprague-Dawley, in vivo
[15] = Plasma clearance in rat at 0.86 mg/kg, iv; assay type: ADME, organism-based; parameters: dose 0.86 mg/kg, route intravenous; details: Sprague-Dawley
[16] = Half life in rat at 0.86 mg/kg, iv; assay type: ADME, organism-based; parameters: dose 0.86 mg/kg, route intravenous; details: Sprague-Dawley, in vivo
[17] = Tmax in rat at 4.3 mg/kg, po; assay type: ADME, organism-based; parameters: dose 4.3 mg/kg, route oral; details: Sprague-Dawley, in vivo

RNA-directed RNA polymerase, sequence (O39930 whole entry): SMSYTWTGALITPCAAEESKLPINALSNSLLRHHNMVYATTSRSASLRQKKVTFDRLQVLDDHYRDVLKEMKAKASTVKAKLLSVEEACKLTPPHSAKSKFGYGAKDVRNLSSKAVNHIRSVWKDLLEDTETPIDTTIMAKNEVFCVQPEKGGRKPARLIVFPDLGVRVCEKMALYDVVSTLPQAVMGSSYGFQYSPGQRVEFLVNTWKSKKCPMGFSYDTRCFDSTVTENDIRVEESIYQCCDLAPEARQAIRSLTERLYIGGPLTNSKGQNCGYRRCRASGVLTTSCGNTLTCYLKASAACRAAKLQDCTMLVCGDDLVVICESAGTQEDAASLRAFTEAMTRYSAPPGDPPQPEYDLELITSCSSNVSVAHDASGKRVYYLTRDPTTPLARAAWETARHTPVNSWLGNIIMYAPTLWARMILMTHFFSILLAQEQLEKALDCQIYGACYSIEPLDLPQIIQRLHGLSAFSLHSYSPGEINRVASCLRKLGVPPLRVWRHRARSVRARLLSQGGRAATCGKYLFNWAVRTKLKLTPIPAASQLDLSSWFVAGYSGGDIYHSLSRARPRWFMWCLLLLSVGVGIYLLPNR
Genome polyprotein, sequence (Q96662 3189-3907 limits assumed): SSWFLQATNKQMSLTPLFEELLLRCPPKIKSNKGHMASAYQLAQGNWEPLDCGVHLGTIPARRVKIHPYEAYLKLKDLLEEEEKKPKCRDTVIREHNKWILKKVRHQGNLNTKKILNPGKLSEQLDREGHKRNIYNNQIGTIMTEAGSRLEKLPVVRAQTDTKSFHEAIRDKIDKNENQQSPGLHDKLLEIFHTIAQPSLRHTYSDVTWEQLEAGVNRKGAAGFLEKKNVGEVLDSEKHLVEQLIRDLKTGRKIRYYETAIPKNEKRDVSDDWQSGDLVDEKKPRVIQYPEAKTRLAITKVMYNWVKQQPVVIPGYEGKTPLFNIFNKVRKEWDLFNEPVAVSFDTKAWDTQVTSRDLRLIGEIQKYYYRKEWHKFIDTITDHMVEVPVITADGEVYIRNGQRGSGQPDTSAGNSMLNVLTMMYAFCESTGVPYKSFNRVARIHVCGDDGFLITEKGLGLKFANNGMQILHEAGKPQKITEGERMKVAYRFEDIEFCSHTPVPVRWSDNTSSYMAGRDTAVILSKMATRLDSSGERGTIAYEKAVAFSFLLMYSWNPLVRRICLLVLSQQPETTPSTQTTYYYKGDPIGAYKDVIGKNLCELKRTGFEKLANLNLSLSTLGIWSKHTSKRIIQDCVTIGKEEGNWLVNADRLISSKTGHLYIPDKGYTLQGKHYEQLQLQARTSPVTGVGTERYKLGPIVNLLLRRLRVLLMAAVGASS

| SMILES | IC50 [1] [µM] | IC50 (HFF) [µM] | IC50 (ECV-304) [µM] | other results |
| --- | --- | --- | --- | --- |
| CN(C)c1ccc(/C=C2\SC(=S)N(N)C2=O)cc1 | > 30 |  |  |  |
| O=C(NN1C(=O)/C(=C/c2ccc(Cl)cc2)SC1=S)c1ccccc1 | > 30 |  |  |  |
| NN1C(=O)/C(=C/c2ccc([N+](=O)[O-])cc2)SC1=S | 1 |  |  |  |
| O=C1/C(=C/c2cc(F)c(F)cc2F)SC(=S)N1NS(=O)(=O)c1ccccc1 | 0.2 | > 100 | > 50 |  |
| O=C1C(Cc2ccc(Cl)c(Cl)c2)SC(=S)N1NS(=O)(=O)c1ccccc1 (stereo unspecified) | 11 |  |  |  |
| CN1C(=O)/C(=C/c2ccc([N+](=O)[O-])cc2)SC1=S | 30 |  |  |  |
| O=C1/C(=C/c2ccc(Cl)c(Cl)c2)SC(=S)N1NS(=O)(=O)c1ccccc1 | 0.2 | > 100 | > 50 | Activity [2]: inactive; Activity (Homo sapiens): inactive; Activity [3]: inactive; Cmax [4]: 3740 ng/mL; clearance [5]: 0.125 mL/min/kg; Tmax [6]: 3.3 h; Activity [7]: inactive; AUC(0-t) at 8 h [8]: 25500 ng·h/mL; Activity (Tubulin (Homo sapiens)): inactive; half-life [9]: 9.2 h; Vd [10]: 0.09 L/kg |
| NN1C(=O)/C(=C/c2ccc(F)cc2)SC1=S | 7 |  |  |  |
| O=C1/C(=C/c2ccc(F)cc2F)SC(=S)N1NS(=O)(=O)c1ccccc1 | 3 | > 100 | > 50 |  |
| Cc1cccc(/C=C2\SC(=S)N(NS(=O)(=O)c3ccccc3)C2=O)c1 | 25 | > 100 | > 50 |  |
| O=C1/C(=C/c2ccc(Br)c(Br)c2)SC(=S)N1NS(=O)(=O)c1ccccc1 | 0.2 | > 100 | > 50 |  |
| CC(/C=C1\SC(=S)N(NS(=O)(=O)c2ccccc2)C1=O)=C\c1ccccc1 | 0.2 | > 100 | > 50 |  |
| O=C1/C(=C/c2ccc(C(F)(F)F)cc2)SC(=S)N1NS(=O)(=O)c1ccccc1 | 1 | > 100 | > 50 |  |
| N#Cc1ccc(/C=C2\SC(=S)N(N)C2=O)cc1 | 7 |  |  |  |
| CCCCS(=O)(=O)NN1C(=O)/C(=C/c2ccc(Cl)c(Cl)c2)SC1=S | 0.7 |  |  |  |
| O=C1/C(=C/c2ccc(Cl)cc2)SC(=S)N1NS(=O)(=O)c1ccccc1 | 1.5 |  |  | IC50 (Genome polyprotein): > 30 µM; IC50 [11]: > 30 µM |
| O=C1/C(=C/c2ccc(-c3cc(C(F)(F)F)ccc3Cl)o2)SC(=S)N1NS(=O)(=O)c1ccccc1 | 0.1 |  |  |  |
| C/C(=C1/SC(=S)N(NS(=O)(=O)c2ccccc2)C1=O)c1ccc(Cl)c(Cl)c1 | 0.6 |  |  |  |
| O=C1/C(=C/c2cc(F)ccc2F)SC(=S)N1NS(=O)(=O)c1ccccc1 | 1.7 | > 100 | > 50 |  |
| O=C1/C(=C/c2ccc3ccccc3c2)SC(=S)N1NS(=O)(=O)c1ccccc1 | 3 | > 100 | > 50 |  |
| O=C1/C(=C/c2ccc([N+](=O)[O-])cc2)SC(=S)N1NS(=O)(=O)c1ccccc1 | 2 | > 100 | > 50 |  |
| Cc1ccc(/C=C2\SC(=S)N(N)C2=O)cc1 | > 30 |  |  |  |
| CN1C(=O)/C(=C/c2ccc(Cl)cc2)SC1=S | > 30 |  |  |  |
| NN1C(=O)/C(=C/c2ccc(Cl)cc2)SC1=S | 16 |  |  |  |

| SMILES | IC50 [1] [µM] | IC50 (HFF) [µM] | IC50 (ECV-304) [µM] | other results |
| --- | --- | --- | --- | --- |
| COc1ccc(/C=C2\SC(=S)N(N)C2=O)cc1 | > 30 |  |  |  |
| O=C1/C(=C/c2ccc(Cl)c(F)c2)SC(=S)N1NS(=O)(=O)c1ccccc1 | 1 | > 100 | > 50 |  |
| COc1cccc(/C=C2\SC(=S)N(NS(=O)(=O)c3ccccc3)C2=O)c1 | 5 | > 100 | > 50 |  |
| O=C1/C(=C/c2ccc3c(c2)OCO3)SC(=S)N1NS(=O)(=O)c1ccccc1 | 15 | > 100 | > 50 |  |
| O=C1/C(=C/c2ccccc2)SC(=S)N1NS(=O)(=O)c1ccccc1 | 30 | > 100 | > 50 |  |
| N#Cc1ccc(/C=C2\SC(=S)N(NS(=O)(=O)c3ccccc3)C2=O)cc1 | 0.9 | > 100 | > 50 |  |
| O=C1/C(=C/c2cccnc2)SC(=S)N1NS(=O)(=O)c1ccccc1 | 15 | > 100 | > 50 |  |
| Cc1ccc(/C=C2\SC(=S)N(NS(=O)(=O)c3ccccc3)C2=O)cc1C | 8 | > 100 | > 50 |  |
| NN1C(=O)/C(=C/c2ccccc2)SC1=S | > 30 |  |  |  |
| O=S(=O)(NN1C(=S)SC(Cc2ccc(Cl)c(Cl)c2)C1O)c1ccccc1 (stereo unspecified) | 27 |  |  |  |
| O=C1/C(=C/c2ccccc2F)SC(=S)N1NS(=O)(=O)c1ccccc1 | 6.5 | > 100 | > 50 |  |
| O=C1NC(=S)S/C1=C\c1ccc([N+](=O)[O-])cc1 | 22 |  |  |  |
| COc1ccc(/C=C2\SC(=S)N(NS(=O)(=O)c3ccccc3)C2=O)cc1 | 5 | > 100 | > 50 |  |
| Cc1ccc(/C=C2\SC(=S)N(NS(=O)(=O)c3ccccc3)C2=O)cc1 | 10 | > 100 | > 50 |  |
| CCN1C(=O)/C(=C/c2ccc(Cl)cc2)SC1=S | > 30 |  |  |  |
| O=C1/C(=C/c2ccc(F)c(F)c2F)SC(=S)N1NS(=O)(=O)c1ccccc1 | 1.9 | > 100 | > 50 |  |
| CS(=O)(=O)NN1C(=O)/C(=C/c2ccc(Cl)c(Cl)c2)SC1=S | 2 |  |  |  |
| O=C1/C(=C/c2ccc(F)cc2)SC(=S)N1NS(=O)(=O)c1ccccc1 | 1 | > 100 | > 50 |  |
| O=C1/C(=C/c2ccc(Cl)c(Cl)c2)SC(=S)N1NS(=O)(=O)c1cccs1 | 0.2 | > 100 | > 50 | Vd [12]: 0.7 L/kg; AUC(0-t) at 8 h [13]: 25600 ng·h/mL; Cmax [14]: 3970 ng/mL; clearance [15]: 2.83 mL/min/kg; half-life [16]: 3.3 h; Tmax [17]: 1.7 h |
| O=C1/C(=C/c2cc(F)c(F)c(F)c2)SC(=S)N1NS(=O)(=O)c1ccccc1 | 1 | > 100 | > 50 |  |
| O=C1/C(=C/c2ccc(Br)cc2)SC(=S)N1NS(=O)(=O)c1ccccc1 | 0.7 | > 100 | > 50 |  |
| O=C1NC(=S)S/C1=C\c1ccc(Cl)cc1 | > 30 |  |  |  |
| O=C1/C(=C/c2ccc(Cl)cc2)SC(=S)N1Cc1ccccc1 | > 30 |  |  |  |
